In brackets after ≈: the same amount, converted by molar mass. Non-standard residues stand in square brackets, D forms with d. Residues, ends and D or L forms follow the SMILES beside them. Dip = N[C@H](C(=O)O)C(c1ccccc1)c1ccccc1
Key:
Assay in all cases: microbe, parasite or virus in culture
MRSA (ATCC BAA-1556) = assay type: cell-based, Methicillin-Resistant Staphylococcus aureus; conditions: ATCC BAA-1556, 24 h
Procedure: (§1) The antibacterial activity of all ten synthesized linear and cyclic peptides was evaluated against MRSA (ATCC BAA-1556), S. aureus (ATCC 29213), E. faecium (ATCC 700221), S. pneumoniae (ATCC 51938), E. faecalis (ATCC 29212), B. subtilis (ATCC-6633), K. pneumoniae (ATCC BAA-1705), P. aeruginosa (ATCC 27883), and E. coli (ATCC 25922). Meropenem and daptomycin were used as positive controls for this study. Certain peptides are marked as “NT” (not tested) against specific bacterial strains based on initial screening data. […] The MIC was determined by micro-broth dilution protocol, where the minimal concentrations were determined to be in wells with no visible bacterial growth.
(§2) All bacterial experiments were carried out in a laminar flow hood (Labconco, Kansas City, MO, USA). The bacterial strains were cultured following the guidelines set by the Clinical Laboratory Standards Institute (CLSI). Antibacterial assays were performed using a standard microtiter dilution method as described in previous studies. The minimum inhibitory concentration (MIC) refers to the lowest peptide concentration that inhibits bacterial growth in wells with no visible bacterial growth. MIC was determined by micro-broth dilution. Bacteria were cultured overnight in 6 mL of Luria Broth (LB). A stock solution of the peptide was prepared in water and DMSO, and a test compound solution with a concentration of 256 µg/mL was made in LB. Meropenem, with a solubility of 8 mg/mL, was prepared as a stock solution at 4 mg/500 µL. An aliquot of the overnight bacteria culture was diluted in normal saline (NS, 1 mL) until achieving a 0.5 McFarland turbidity (1.5 × 10^8 bacterial cell CFU/mL). A 0.5 McFarland compared solution (60 µL) was added to Mueller Hinton Broth (MH) 8940 µL to generate a 1/150 dilution. A 200 µL test compound solution was added to the first well of a 96-well plate, and the remaining wells (2–12) were filled with 100 µL of MH media using a multi-channel pipette from a sterile reservoir. A concentration of […] of the tested peptides was prepared from a stock solution of the samples for testing in Muller−Hinton broth MH media. Peptides stock solution was dissolved in 5% DMSO in water, and the final concentration of DMSO in the first well of assay plate was 2.5% DMSO/H2O and diluted across the assay plate.
(§3) A 100 µL sample from well 1 was pipetted into well 2, and the solution was mixed thoroughly by pipetting up and down. Next, 100 µL was transferred from well 2 to well 3, followed by thorough mixing. This 2-fold serial dilution process continued through well 11, with no additions made to well 12. The final 100 µL from well 11 was discarded. After completing the serial dilution, each well (1–12) contained 100 µL of solution. The bacterial culture in MH media was vortexed and transferred to a sterile reservoir, from which 100 µL was added to each well using a 12-channel pipette. (Note: The dilutions were further diluted upon adding the bacterial solution; for example, the concentration in well 1 started at […] after the addition of the bacterial culture.) The plates were incubated overnight at 37 °C for 24 h. All experiments were performed in triplicate and repeated twice, with controls consisting of bacteria in MH media and positive controls of daptomycin or meropenem.

S. aureus (ATCC 29213) = assay type: cell-based, Staphylococcus aureus; conditions: ATCC 29213, 24 h
Procedure: as §1, §2, §3

E. faecium (ATCC 700221) = assay type: cell-based, Enterococcus faecium; conditions: ATCC 700221, 24 h
Procedure: as §1, §2, §3

[1] = tested on: S. pneumoniae (ATCC 51938); assay type: cell-based, Streptococcus pneumoniae; conditions: ATCC 51938, 24 h
Procedure: as §1, §2, §3

E. faecalis (ATCC 29212) = assay type: cell-based, Enterococcus faecalis; conditions: ATCC 29212, 24 h
Procedure: as §1, §2, §3

B. subtilis (ATCC-6633) = assay type: cell-based, Bacillus subtilis; conditions: ATCC-6633, 24 h
Procedure: as §1, §2, §3

[2] = tested on: K. pneumoniae (ATCC BAA-1705); assay type: cell-based, Klebsiella pneumoniae; conditions: ATCC BAA-1705, 24 h
Procedure: as §1, §2, §3

[3] = tested on: P. aeruginosa (ATCC 27883); assay type: cell-based, Pseudomonas aeruginosa; conditions: ATCC 27883, 24 h
Procedure: as §1, §2, §3

E. coli (ATCC 25922) = assay type: cell-based, Escherichia coli; conditions: ATCC 25922, 24 h
Procedure: as §1, §2, §3

C. albicans (ATCC 60193) = assay type: cell-based, Candida albicans; conditions: ATCC 60193, 24 h
Procedure: (§4) The antifungal activity of all ten synthesized linear and cyclic peptides was evaluated against C. albicans (ATCC 60193), C. parapsilosis (ATCC 22019), and A. fumigatus (AF-293). Fluconazole and amphotericin B were used as positive controls for this study. The MIC was determined at concentrations in wells with no visible fungal growth.
(§5) In this study, C. albicans and C. parapsilosis were cultured on Yeast Peptone Dextrose (YPD) agar containing 1% w/v yeast extract, 2% w/v peptone, 2% w/v D-glucose, and 1.5% agar. A single colony from the agar was selected and cultured in Tryptone soy broth supplemented with 0.1% D-glucose, then incubated for 24 h at 37 °C. The cells were washed twice with PBS by centrifugation at 2000 RPM for 5 min. The pellet was resuspended in 5 mL of PBS, diluted in RPMI 1640 with L-glutamine, supplemented with 2% D-glucose, and the pH adjusted using HEPES buffer. The suspension was then incubated for 50 min at 35 °C to achieve a final cell concentration of 10^6 cells/mL.
(§6) Peptide concentrations of 50, 25, 12.5, 6.25, and 3.1 μg/mL were tested in triplicate and repeated twice. Each well of a 96-well plate was inoculated with the prepared inoculum suspension, which was diluted with RPMI media to a final volume of 200 μL per well. The control well received the same inoculum without any compound. The plates were incubated for 24 h at 37 °C. Fungal and microbial growth were visually observed in the control wells, and the minimum inhibitory concentration (MIC) was determined as the lowest concentration at which no growth was detected in the wells. Amphotericin B was used as a standard antifungal drug.

[4] = tested on: C. parapsilosis (ATCC 22019); assay type: cell-based, Candida parapsilosis; conditions: ATCC 22019, 24 h
Procedure: as §4, §5, §6

Compound	MIC (MRSA (ATCC BAA-1556))	MIC (S. aureus (ATCC 29213))	MIC (E. faecium (ATCC 700221))	MIC [1]	MIC (E. faecalis (ATCC 29212))	MIC (B. subtilis (ATCC-6633))	MIC [2]	MIC [3]	MIC (E. coli (ATCC 25922))	MIC (C. albicans (ATCC 60193))	MIC [4]
N=C(N)NCCC[C@H](NC(=O)[C@@H](NC(=O)[C@H](CCCNC(=N)N)NC(=O)[C@@H](NC(=O)[C@H](CCCNC(=N)N)NC(=O)[C@H](Cc1c[nH]c2ccccc12)NC(=O)[C@H](CCCNC(=N)N)NC(=O)[C@H](Cc1c[nH]c2ccccc12)NC(=O)[C@H](CCCNC(=N)N)NC(=O)[C@@H](N)Cc1c[nH]c2ccccc12)C(c1ccccc1)c1ccccc1)C(c1ccccc1)c1ccccc1)C(=O)O [((DipR)2(WR)3)] (H-WRWRWR[Dip]R[Dip]R-OH)	3.1 µM (≈ 5.59 µg/mL)	3.1 µM (≈ 5.59 µg/mL)	3.1 µM (≈ 5.59 µg/mL)	0.78 µM (≈ 1.41 µg/mL)	6.3 µM (≈ 11.4 µg/mL)	1.6 µM (≈ 2.89 µg/mL)	12.5 µM (≈ 22.6 µg/mL)	12.5 µM (≈ 22.6 µg/mL)	6.3 µM (≈ 11.4 µg/mL)	3.5 µM (≈ 6.31 µg/mL)	6.9 µM (≈ 12.4 µg/mL)
N=C(N)NCCC[C@H](NC(=O)[C@@H](NC(=O)[C@H](CCCNC(=N)N)NC(=O)[C@@H](NC(=O)[C@H](CCCNC(=N)N)NC(=O)[C@@H](NC(=O)[C@H](CCCNC(=N)N)NC(=O)[C@H](Cc1c[nH]c2ccccc12)NC(=O)[C@H](CCCNC(=N)N)NC(=O)[C@@H](N)Cc1c[nH]c2ccccc12)C(c1ccccc1)c1ccccc1)C(c1ccccc1)c1ccccc1)C(c1ccccc1)c1ccccc1)C(=O)O [((DipR)3(WR)2)] (H-WRWR[Dip]R[Dip]R[Dip]R-OH)	3.1 µM (≈ 5.71 µg/mL)	3.1 µM (≈ 5.71 µg/mL)	3.1 µM (≈ 5.71 µg/mL)	0.78 µM (≈ 1.44 µg/mL)	3.1 µM (≈ 5.71 µg/mL)	3.1 µM (≈ 5.71 µg/mL)	25 µM (≈ 46 µg/mL)	25 µM (≈ 46 µg/mL)	12.5 µM (≈ 23 µg/mL)	3.4 µM (≈ 6.26 µg/mL)	6.8 µM (≈ 12.5 µg/mL)
N=C(N)NCCC[C@H](NC(=O)[C@@H](NC(=O)[C@H](CCCNC(=N)N)NC(=O)[C@@H](NC(=O)[C@H](CCCNC(=N)N)NC(=O)[C@@H](NC(=O)[C@H](CCCNC(=N)N)NC(=O)[C@@H](NC(=O)[C@H](CCCNC(=N)N)NC(=O)[C@@H](N)Cc1c[nH]c2ccccc12)C(c1ccccc1)c1ccccc1)C(c1ccccc1)c1ccccc1)C(c1ccccc1)c1ccccc1)C(c1ccccc1)c1ccccc1)C(=O)O [((DipR)4(WR))] (H-WR[Dip]R[Dip]R[Dip]R[Dip]R-OH)	3.1 µM (≈ 5.82 µg/mL)	3.1 µM (≈ 5.82 µg/mL)	1.6 µM (≈ 3.01 µg/mL)	0.78 µM (≈ 1.47 µg/mL)	1.6 µM (≈ 3.01 µg/mL)	12.5 µM (≈ 23.5 µg/mL)	25 µM (≈ 47 µg/mL)	25 µM (≈ 47 µg/mL)	12.5 µM (≈ 23.5 µg/mL)	6.6 µM (≈ 12.4 µg/mL)	6.6 µM (≈ 12.4 µg/mL)

— article PMC11763264, “Antibacterial and Antifungal Activities of Linear and Cyclic Peptides Containing Arginine, Tryptophan, and Diphenylalanine” (Antibiotics, 2025)
